Test results reported in paper PMC2934701 (The Journal of Biological Chemistry, 2010).
Residue numbers refer to the chain shown, from its start.

Tests used:
Assay in all cases: Fluo-4 calcium assay, HEK293T + Galpha16gust44
Type in all cases: cell-based
hTAS2R16 (ssr3-hTAS2R16) [1] = biological target: T1, hTAS2R16 (ssr3-hTAS2R16) (Homo sapiens, UniProt Q9NYV7, W94F)
T1 sequence (Q9NYV7 1-291 W94F): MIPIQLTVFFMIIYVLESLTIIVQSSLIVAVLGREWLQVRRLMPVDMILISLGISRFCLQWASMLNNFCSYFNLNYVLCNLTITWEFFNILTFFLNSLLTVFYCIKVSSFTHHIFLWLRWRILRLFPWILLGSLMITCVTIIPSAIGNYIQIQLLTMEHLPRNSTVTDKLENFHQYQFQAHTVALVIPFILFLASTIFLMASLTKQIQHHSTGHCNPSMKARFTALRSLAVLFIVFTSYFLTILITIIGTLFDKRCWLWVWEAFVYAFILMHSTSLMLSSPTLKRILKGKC

hTAS2R16 (ssr3-hTAS2R16) [2] = biological target: T2, hTAS2R16 (ssr3-hTAS2R16) (Homo sapiens, UniProt Q9NYV7, F240W)
T2 sequence (Q9NYV7 1-291 F240W): T1 sequence (Q9NYV7 1-291 W94F) with F94W, F240W

hTAS2R16 (ssr3-hTAS2R16) [3] = biological target: T3, hTAS2R16 (ssr3-hTAS2R16) (Homo sapiens, UniProt Q9NYV7, Q177N)
T3 sequence (Q9NYV7 1-291 Q177N): T1 sequence (Q9NYV7 1-291 W94F) with F94W, Q177N

hTAS2R16 (ssr3-hTAS2R16) [4] = biological target: T4, hTAS2R16 (ssr3-hTAS2R16) (Homo sapiens, UniProt Q9NYV7, F240Y)
T4 sequence (Q9NYV7 1-291 F240Y): T1 sequence (Q9NYV7 1-291 W94F) with F94W, F240Y

hTAS2R16 (ssr3-hTAS2R16) [5] = biological target: T5, hTAS2R16 (ssr3-hTAS2R16) (Homo sapiens, UniProt Q9NYV7, F93A)
T5 sequence (Q9NYV7 1-291 F93A): T1 sequence (Q9NYV7 1-291 W94F) with F93A, F94W

hTAS2R16 (ssr3-hTAS2R16) [6] = biological target: T6, hTAS2R16 (ssr3-hTAS2R16) (Homo sapiens, UniProt Q9NYV7, H181T)
T6 sequence (Q9NYV7 1-291 H181T): T1 sequence (Q9NYV7 1-291 W94F) with F94W, H181T

hTAS2R16 (ssr3-hTAS2R16) [7] = biological target: T7, hTAS2R16 (ssr3-hTAS2R16) (Homo sapiens, UniProt Q9NYV7, E86D)
T7 sequence (Q9NYV7 1-291 E86D): T1 sequence (Q9NYV7 1-291 W94F) with E86D, F94W

hTAS2R16 (ssr3-hTAS2R16) [8] = biological target: T8, hTAS2R16 (ssr3-hTAS2R16) (Homo sapiens, UniProt Q9NYV7, I243V)
T8 sequence (Q9NYV7 1-291 I243V): T1 sequence (Q9NYV7 1-291 W94F) with F94W, I243V

Compound: OCc1ccccc1O[C@@H]1O[C@H](CO)[C@@H](O)[C@H](O)[C@H]1O [salicin]
- EC50 (hTAS2R16 (ssr3-hTAS2R16) [1]): 9680 µM
- EC50 (hTAS2R16 (ssr3-hTAS2R16) [2]): 2050 µM
- EC50 (hTAS2R16 (ssr3-hTAS2R16) [3]): 390 µM
- EC50 (hTAS2R16 (ssr3-hTAS2R16) [4]): 2440 µM
- EC50 (hTAS2R16 (ssr3-hTAS2R16) [5]): 11500 µM
- EC50 (hTAS2R16 (ssr3-hTAS2R16) [6]): 1840 µM
- EC50 (hTAS2R16 (ssr3-hTAS2R16) [7]): 2130 µM
- EC50 (hTAS2R16 (ssr3-hTAS2R16) [8]): 840 µM
